For assay [1], the system named is Triticum aestivum. Briefly: Binding affinity to wheat germ agglutinin.
The test system of assay [2] is Triticum aestivum. Briefly: Binding affinity to wheat germ agglutinin relative to Monovalent.

`CC(=O)N[C@H]1[C@H](O[C@H]2[C@@H](O)[C@@H](CO)O[C@@H](O[C@@H]3[C@@H](O)[C@H](O)C(O)O[C@H]3CO)[C@@H]2O)O[C@H](CO)[C@@H](O)[C@@H]1O` (stereo not given in full): the Ka in assay [1] was 1.1 10^3/M. Molecule `CC(=O)N[C@H]1[C@H](O[C@H]2[C@@H](O)[C@@H](CO)O[C@@H](O[C@@H]3[C@@H](O)[C@H](O)C(OCCCCCSCCC[Si](CCCSCCCCCOC4O[C@@H](CO)[C@H](O[C@@H]5O[C@H](CO)[C@H](O)[C@H](O[C@@H]6O[C@H](CO)[C@@H](O)[C@H](O)[C@H]6NC(C)=O)[C@H]5O)[C@@H](O)[C@@H]4O)(CCCSCCCCCOC4O[C@@H](CO)[C@H](O[C@@H]5O[C@H](CO)[C@H](O)[C@H](O[C@@H]6O[C@H](CO)[C@@H](O)[C@H](O)[C@H]6NC(C)=O)[C@H]5O)[C@@H](O)[C@@H]4O)CCC[Si](CCCSCCCCCOC4O[C@@H](CO)[C@H](O[C@@H]5O[C@H](CO)[C@H](O)[C@H](O[C@@H]6O[C@H](CO)[C@@H](O)[C@H](O)[C@H]6NC(C)=O)[C@H]5O)[C@@H](O)[C@@H]4O)(CCCSCCCCCOC4O[C@@H](CO)[C@H](O[C@@H]5O[C@H](CO)[C@H](O)[C@H](O[C@@H]6O[C@H](CO)[C@@H](O)[C@H](O)[C@H]6NC(C)=O)[C@H]5O)[C@@H](O)[C@@H]4O)CCC[Si](CCSCCCCCOC4O[C@@H](CO)[C@H](O[C@@H]5O[C@H](CO)[C@H](O)[C@H](O[C@@H]6O[C@H](CO)[C@@H](O)[C@H](O)[C@H]6NC(C)=O)[C@H]5O)[C@@H](O)[C@@H]4O)(CCSCCCCCOC4O[C@@H](CO)[C@H](O[C@@H]5O[C@H](CO)[C@H](O)[C@H](O[C@@H]6O[C@H](CO)[C@@H](O)[C@H](O)[C@H]6NC(C)=O)[C@H]5O)[C@@H](O)[C@@H]4O)CCSCCCCCOC4O[C@@H](CO)[C@H](O[C@@H]5O[C@H](CO)[C@H](O)[C@H](O[C@@H]6O[C@H](CO)[C@@H](O)[C@H](O)[C@H]6NC(C)=O)[C@H]5O)[C@@H](O)[C@@H]4O)O[C@H]3CO)[C@@H]2O)O[C@H](CO)[C@@H](O)[C@@H]1O` (stereo not given in full) gave an Activity in assay [2] of 1200. The Ka in assay [1] is 1.3 10^6/M. For `CC(=O)N[C@H]1[C@H](O[C@H]2[C@@H](O)[C@@H](CO)O[C@@H](O[C@@H]3[C@@H](O)[C@H](O)C(OCCCCCSCCC[Si](CCCSCCCCCOC4O[C@@H](CO)[C@H](O[C@@H]5O[C@H](CO)[C@H](O)[C@H](O[C@@H]6O[C@H](CO)[C@@H](O)[C@H](O)[C@H]6NC(C)=O)[C@H]5O)[C@@H](O)[C@@H]4O)(CCCSCCCCCOC4O[C@@H](CO)[C@H](O[C@@H]5O[C@H](CO)[C@H](O)[C@H](O[C@@H]6O[C@H](CO)[C@@H](O)[C@H](O)[C@H]6NC(C)=O)[C@H]5O)[C@@H](O)[C@@H]4O)CCC[Si](C)(C)CCC[Si](CCCSCCCCCOC4O[C@@H](CO)[C@H](O[C@@H]5O[C@H](CO)[C@H](O)[C@H](O[C@@H]6O[C@H](CO)[C@@H](O)[C@H](O)[C@H]6NC(C)=O)[C@H]5O)[C@@H](O)[C@@H]4O)(CCCSCCCCCOC4O[C@@H](CO)[C@H](O[C@@H]5O[C@H](CO)[C@H](O)[C@H](O[C@@H]6O[C@H](CO)[C@@H](O)[C@H](O)[C@H]6NC(C)=O)[C@H]5O)[C@@H](O)[C@@H]4O)CCCSCCCCCOC4O[C@@H](CO)[C@H](O[C@@H]5O[C@H](CO)[C@H](O)[C@H](O[C@@H]6O[C@H](CO)[C@@H](O)[C@H](O)[C@H]6NC(C)=O)[C@H]5O)[C@@H](O)[C@@H]4O)O[C@H]3CO)[C@@H]2O)O[C@H](CO)[C@@H](O)[C@@H]1O` (stereo not given in full) the same measures were 2500 and 2.8 10^6/M.
